Data: PubChem BioAssay (NCI)
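Test compounds were applied to cells in 96-well plates for 48 hours at 5 doses. At the TGI there is no net growth.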

Tests used:
Assay in all cases: DTP human tumour cell line panel, 48 h
HL-60(TB) leukemia = system: HL-60(TB) leukemia
CCRF-CEM leukemia = system: CCRF-CEM leukemia
RXF 393 renal = system: RXF 393 renal
MALME-3M melanoma = system: MALME-3M melanoma
SK-OV-3 ovarian = system: SK-OV-3 ovarian
MDA-MB-231 breast = system: MDA-MB-231 breast
K-562 leukemia = system: K-562 leukemia
IGROV1 ovarian = system: IGROV1 ovarian
NCI-H522 lung = system: NCI-H522 lung
RPMI-8226 leukemia = system: RPMI-8226 leukemia
SF-268 CNS = system: SF-268 CNS
SF-295 CNS = system: SF-295 CNS
SNB-19 CNS = system: SNB-19 CNS
HCT-116 colon = system: HCT-116 colon
HCC-2998 colon = system: HCC-2998 colon
M14 melanoma = system: M14 melanoma
OVCAR-4 ovarian = system: OVCAR-4 ovarian
ACHN renal = system: ACHN renal
A498 renal = system: A498 renal
T-47D breast = system: T-47D breast

## CC(=O)Oc1ccc2c(c1)c1c(=O)oc(C)nc1n2Cc1ccccc1
HL-60(TB) leukemia
  TGI: > 100 µM
CCRF-CEM leukemia
  TGI: > 100 µM
RXF 393 renal
  TGI: 68.5 µM
MALME-3M melanoma
  TGI: > 100 µM
SK-OV-3 ovarian
  TGI: 98.6 µM
MDA-MB-231 breast
  TGI: > 100 µM
K-562 leukemia
  TGI: > 100 µM
IGROV1 ovarian
  TGI: > 100 µM
NCI-H522 lung
  TGI: 60.5 µM
RPMI-8226 leukemia
  TGI: > 100 µM
SF-268 CNS
  TGI: > 100 µM
SF-295 CNS
  TGI: > 100 µM
SNB-19 CNS
  TGI: > 100 µM
HCT-116 colon
  TGI: > 100 µM
HCC-2998 colon
  TGI: > 100 µM
M14 melanoma
  TGI: > 100 µM
OVCAR-4 ovarian
  TGI: > 100 µM
ACHN renal
  TGI: > 100 µM
A498 renal
  TGI: > 74.6 µM
T-47D breast
  TGI: > 100 µM

## CC1CC[C@@]2(OC1)OC1C[C@H]3[C@@H]4CC[C@H]5CC(OC6OC(CO)C(O)C(OC7OC(CO)C(OC8OC(CO)C(O)C(OC9OC(CO)C(O)C(O)C9O)C8OC8OC(CO)C(O)C(O)C8O)C(O)C7O)C6O)[C@H](O)CC5(C)[C@H]4CCC3(C)C1[C@@H]2C (some centres not stated)
HL-60(TB) leukemia
  TGI: 9.3 µM
CCRF-CEM leukemia
  TGI: 10.2 µM
RXF 393 renal
  TGI: 3.27 µM
MALME-3M melanoma
  TGI: 15.1 µM
SK-OV-3 ovarian
  TGI: 14.1 µM
MDA-MB-231 breast
  TGI: 5.87 µM
K-562 leukemia
  TGI: 12.4 µM
IGROV1 ovarian
  TGI: 4.59 µM
NCI-H522 lung
  TGI: 5.35 µM
RPMI-8226 leukemia
  TGI: 12.9 µM
SF-268 CNS
  TGI: 11.3 µM
SF-295 CNS
  TGI: 9.39 µM
SNB-19 CNS
  TGI: 9.47 µM
HCT-116 colon
  TGI: 11.5 µM
HCC-2998 colon
  TGI: 4.71 µM
M14 melanoma
  TGI: 17.6 µM
OVCAR-4 ovarian
  TGI: 9.55 µM
ACHN renal
  TGI: 7.4 µM
A498 renal
  TGI: 3.16 µM
T-47D breast
  TGI: 4.58 µM

## CCCCCCCCCCCCC/C=C/[C@@H](O)[C@H](COC1OC(CO)C(OC2OC(CO)C(O)C(OC3(C(=O)O)CC(O)C(NC(C)=O)C(C(O)C(O)CO)O3)C2O)C(O)C1O)N=[N+]=[N-] (some centres not stated)
HL-60(TB) leukemia
  TGI: 80.8 µM
CCRF-CEM leukemia
  TGI: 43.4 µM
RXF 393 renal
  TGI: 48.8 µM
MALME-3M melanoma
  TGI: 55.5 µM
SK-OV-3 ovarian
  TGI: 78.8 µM
MDA-MB-231 breast
  TGI: > 100 µM
K-562 leukemia
  TGI: 60.6 µM
IGROV1 ovarian
  TGI: 85.5 µM
NCI-H522 lung
  TGI: 70.5 µM
RPMI-8226 leukemia
  TGI: > 100 µM
SF-268 CNS
  TGI: 41.3 µM
SF-295 CNS
  TGI: 88 µM
SNB-19 CNS
  TGI: 93.7 µM
HCT-116 colon
  TGI: > 100 µM
HCC-2998 colon
  TGI: > 100 µM
M14 melanoma
  TGI: 34.3 µM
OVCAR-4 ovarian
  TGI: > 100 µM
ACHN renal
  TGI: > 100 µM
A498 renal
  TGI: > 100 µM
T-47D breast
  TGI: > 100 µM

## O=C1c2cccc3cccc(c23)C(=O)N1CCCNCCCNCCCCNCCCNCCCN1C(=O)c2cccc3cccc(c23)C1=O
HL-60(TB) leukemia
  TGI: 4.64 µM
CCRF-CEM leukemia
  TGI: 3.29 µM
RXF 393 renal
  TGI: 19.1 µM
MALME-3M melanoma
  TGI: 7.03 µM
SK-OV-3 ovarian
  TGI: 32.1 µM
MDA-MB-231 breast
  TGI: 22.4 µM
K-562 leukemia
  TGI: 16.5 µM
IGROV1 ovarian
  TGI: 24.5 µM
NCI-H522 lung
  TGI: 32.6 µM
RPMI-8226 leukemia
  TGI: > 34 µM
SF-268 CNS
  TGI: 12.9 µM
SF-295 CNS
  TGI: 24.4 µM
SNB-19 CNS
  TGI: 15.9 µM
HCT-116 colon
  TGI: 8.17 µM
HCC-2998 colon
  TGI: 16.8 µM
M14 melanoma
  TGI: 16.2 µM
OVCAR-4 ovarian
  TGI: 19.1 µM
ACHN renal
  TGI: 15.3 µM
A498 renal
  TGI: 25.2 µM
T-47D breast
  TGI: 47 µM

## COC(=O)[C@]12CCC(C)(C)C[C@H]1[C@H]1C(=O)C=C3[C@@]4(C)C=C(C#N)C(=O)C(C)(C)[C@@H]4CC[C@@]3(C)[C@]1(C)CC2
HL-60(TB) leukemia
  TGI: 0.421 µM
CCRF-CEM leukemia
  TGI: > 100 µM
RXF 393 renal
  TGI: > 100 µM
MALME-3M melanoma
  TGI: 0.143 µM
SK-OV-3 ovarian
  TGI: 1.1 µM
MDA-MB-231 breast
  TGI: 0.106 µM
K-562 leukemia
  TGI: > 27.9 µM
IGROV1 ovarian
  TGI: 1.15 µM
NCI-H522 lung
  TGI: > 100 µM
RPMI-8226 leukemia
  TGI: 0.126 µM
SF-295 CNS
  TGI: 0.105 µM
SNB-19 CNS
  TGI: 0.243 µM
HCT-116 colon
  TGI: 0.0441 µM
HCC-2998 colon
  TGI: 0.0305 µM
M14 melanoma
  TGI: 0.0876 µM
OVCAR-4 ovarian
  TGI: > 7.76 µM
ACHN renal
  TGI: 0.0639 µM
A498 renal
  TGI: 0.114 µM
T-47D breast
  TGI: 0.159 µM

## S=C1SSC2N=CC=CC12 (configuration not stated)
HL-60(TB) leukemia
  TGI: > 100 µM
CCRF-CEM leukemia
  TGI: 71.1 µM
RXF 393 renal
  TGI: > 100 µM
MALME-3M melanoma
  TGI: > 100 µM
SK-OV-3 ovarian
  TGI: > 100 µM
MDA-MB-231 breast
  TGI: > 100 µM
K-562 leukemia
  TGI: > 100 µM
IGROV1 ovarian
  TGI: > 100 µM
NCI-H522 lung
  TGI: > 100 µM
RPMI-8226 leukemia
  TGI: > 100 µM
SF-268 CNS
  TGI: > 100 µM
SF-295 CNS
  TGI: > 100 µM
SNB-19 CNS
  TGI: > 100 µM
HCT-116 colon
  TGI: > 100 µM
HCC-2998 colon
  TGI: 61.4 µM
M14 melanoma
  TGI: > 100 µM
OVCAR-4 ovarian
  TGI: 34.2 µM
ACHN renal
  TGI: > 100 µM
A498 renal
  TGI: > 100 µM
T-47D breast
  TGI: > 100 µM

## CCCCCCOc1ccc(Nc2c(O)c3c(c(O)c2Cl)C(=O)C=CC3=O)cc1
HL-60(TB) leukemia
  TGI: 3.74 µM
CCRF-CEM leukemia
  TGI: 8.61 µM
RXF 393 renal
  TGI: 4.41 µM
MALME-3M melanoma
  TGI: 4.04 µM
SK-OV-3 ovarian
  TGI: > 10 µM
MDA-MB-231 breast
  TGI: > 6.11 µM
K-562 leukemia
  TGI: 8.92 µM
NCI-H522 lung
  TGI: 3.98 µM
RPMI-8226 leukemia
  TGI: 5.11 µM
SF-268 CNS
  TGI: > 10 µM
SF-295 CNS
  TGI: > 10 µM
SNB-19 CNS
  TGI: > 9.63 µM
HCT-116 colon
  TGI: > 6.12 µM
HCC-2998 colon
  TGI: 3.86 µM
M14 melanoma
  TGI: > 6.68 µM
OVCAR-4 ovarian
  TGI: > 8.13 µM
ACHN renal
  TGI: > 10 µM
A498 renal
  TGI: > 10 µM
T-47D breast
  TGI: > 10 µM

## Nc1nc(Cl)c(N)c(NCC2(CO)CCCC2)n1
HL-60(TB) leukemia
  TGI: > 100 µM
CCRF-CEM leukemia
  TGI: > 100 µM
RXF 393 renal
  TGI: > 100 µM
MALME-3M melanoma
  TGI: > 100 µM
SK-OV-3 ovarian
  TGI: 24.2 µM
MDA-MB-231 breast
  TGI: > 100 µM
K-562 leukemia
  TGI: > 100 µM
IGROV1 ovarian
  TGI: > 100 µM
NCI-H522 lung
  TGI: > 100 µM
RPMI-8226 leukemia
  TGI: > 100 µM
SF-268 CNS
  TGI: > 100 µM
SF-295 CNS
  TGI: > 100 µM
SNB-19 CNS
  TGI: > 100 µM
HCT-116 colon
  TGI: > 100 µM
HCC-2998 colon
  TGI: > 100 µM
OVCAR-4 ovarian
  TGI: > 100 µM
ACHN renal
  TGI: > 100 µM
A498 renal
  TGI: > 100 µM
T-47D breast
  TGI: 35.9 µM

## Cc1cc(C)c2c(c1)C/C(=C\c1ccccc1C(=O)O)C2=O
HL-60(TB) leukemia
  TGI: > 100 µM
CCRF-CEM leukemia
  TGI: > 100 µM
RXF 393 renal
  TGI: > 100 µM
MALME-3M melanoma
  TGI: > 100 µM
MDA-MB-231 breast
  TGI: > 100 µM
K-562 leukemia
  TGI: > 100 µM
IGROV1 ovarian
  TGI: > 100 µM
NCI-H522 lung
  TGI: > 100 µM
RPMI-8226 leukemia
  TGI: > 100 µM
SF-268 CNS
  TGI: > 100 µM
SF-295 CNS
  TGI: > 100 µM
SNB-19 CNS
  TGI: > 100 µM
HCT-116 colon
  TGI: > 100 µM
HCC-2998 colon
  TGI: > 100 µM
M14 melanoma
  TGI: > 100 µM
OVCAR-4 ovarian
  TGI: > 100 µM
ACHN renal
  TGI: > 100 µM
A498 renal
  TGI: > 100 µM
T-47D breast
  TGI: > 100 µM

## O=C(/N=C/c1c(O)c2ccccc2oc1=O)Oc1ccccc1
HL-60(TB) leukemia
  TGI: > 100 µM
CCRF-CEM leukemia
  TGI: > 100 µM
RXF 393 renal
  TGI: 31.1 µM
MALME-3M melanoma
  TGI: 61.7 µM
SK-OV-3 ovarian
  TGI: 66 µM
MDA-MB-231 breast
  TGI: 84.1 µM
K-562 leukemia
  TGI: > 100 µM
IGROV1 ovarian
  TGI: 60.7 µM
NCI-H522 lung
  TGI: > 100 µM
RPMI-8226 leukemia
  TGI: > 100 µM
SF-295 CNS
  TGI: > 100 µM
SNB-19 CNS
  TGI: > 100 µM
HCT-116 colon
  TGI: 71.8 µM
HCC-2998 colon
  TGI: > 100 µM
M14 melanoma
  TGI: > 100 µM
OVCAR-4 ovarian
  TGI: 65.8 µM
ACHN renal
  TGI: > 100 µM
A498 renal
  TGI: 46.2 µM
T-47D breast
  TGI: 91.9 µM

## CN(C)c1ccc(/C=N\NC(=O)Nc2cccc3ccccc23)cc1
HL-60(TB) leukemia
  TGI: 7.03 µM
CCRF-CEM leukemia
  TGI: > 100 µM
RXF 393 renal
  TGI: > 100 µM
MALME-3M melanoma
  TGI: 27.4 µM
MDA-MB-231 breast
  TGI: 32.9 µM
IGROV1 ovarian
  TGI: 36.6 µM
NCI-H522 lung
  TGI: 14 µM
RPMI-8226 leukemia
  TGI: > 100 µM
SF-268 CNS
  TGI: 71.8 µM
SNB-19 CNS
  TGI: 7.5 µM
HCT-116 colon
  TGI: 65.2 µM
HCC-2998 colon
  TGI: > 100 µM
M14 melanoma
  TGI: > 100 µM
OVCAR-4 ovarian
  TGI: 40.4 µM
ACHN renal
  TGI: 38.5 µM
A498 renal
  TGI: 64.8 µM
T-47D breast
  TGI: 19.8 µM
